# Reference: ChEMBL document CHEMBL4673278, “Identification and Characterization of a Peptide from the Stony Coral Heliofungia actiniformis” (J Nat Prod, 2020)
# Calls of active or inactive are those of the source. The rule behind the calls is not given here. Bridge positions count the residues as written; N and C are the ends. Peptide text beside a SMILES is read from it.
# What was measured:
# [1] = target: T1, Albumin (Homo sapiens, UniProt P02768); assay: Binding affinity to human serum albumin assessed as remaining parent compound at 3 mM measured up to 24 hrs by RP-HPLC analysis; assay type: ADME, cell-free; conditions: read-out: Activity
# T1 sequence (P02768 whole entry): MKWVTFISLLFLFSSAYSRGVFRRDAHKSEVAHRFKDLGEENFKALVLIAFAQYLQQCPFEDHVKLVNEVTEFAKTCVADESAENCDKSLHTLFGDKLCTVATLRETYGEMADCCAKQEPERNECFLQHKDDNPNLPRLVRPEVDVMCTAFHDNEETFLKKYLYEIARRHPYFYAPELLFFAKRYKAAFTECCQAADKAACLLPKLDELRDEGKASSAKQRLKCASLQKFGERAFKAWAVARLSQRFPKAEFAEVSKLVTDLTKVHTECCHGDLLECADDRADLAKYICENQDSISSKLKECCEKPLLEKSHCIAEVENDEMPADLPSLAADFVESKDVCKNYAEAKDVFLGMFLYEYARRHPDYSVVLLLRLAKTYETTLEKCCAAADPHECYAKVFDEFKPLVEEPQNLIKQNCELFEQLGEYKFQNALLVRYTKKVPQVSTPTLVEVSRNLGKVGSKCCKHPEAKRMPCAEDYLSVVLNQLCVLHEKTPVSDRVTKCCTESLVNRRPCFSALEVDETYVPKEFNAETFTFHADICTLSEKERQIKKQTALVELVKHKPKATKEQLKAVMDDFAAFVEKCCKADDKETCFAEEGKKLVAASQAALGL
# [2] = test system: Klebsiella pneumoniae; assay: Antibacterial activity against Klebsiella pneumoniae assessed as reduction in microbial growth at 0.024 to 0.113 mg/ml after 270 mins by microdilution assay; assay type: functional, organism-based; conditions: dose 0.024-0.113 mg/ml
# [3] = test system: Enterococcus faecalis; assay: Antibacterial activity against Enterococcus faecalis assessed as reduction in microbial growth at 0.024 to 0.113 mg/ml after 270 mins by microdilution assay; assay type: functional, organism-based; conditions: dose 0.024-0.113 mg/ml
# [4] = test system: Alteromonas macleodii; assay: Antibacterial activity against Alteromonas macleodii assessed as reduction in microbial growth at 0.024 to 0.113 mg/ml after 270 mins by microdilution assay; assay type: functional; conditions: dose 0.024-0.113 mg/ml
# [5] = test system: Staphylococcus aureus; assay: Antibacterial activity against methicillin-resistant Staphylococcus aureus assessed as reduction in microbial growth at 0.024 to 0.113 mg/ml after 270 mins by microdilution assay; assay type: functional, organism-based; conditions: dose 0.024-0.113 mg/ml
# [6] = test system: Tenacibaculum skagerrakense; assay: Antibacterial activity against Tenacibaculum skagerrakense assessed as reduction in microbial growth at 0.024 to 0.113 mg/ml after 270 mins by microdilution assay; assay type: functional; conditions: dose 0.024-0.113 mg/ml
# [7] = test system: PBMC; assay: Antiinflammatory activity against LPS-induced human PBMC cells assessed as reduction in TNF-alpha expression at 7.5 to 100 ug/ml by ELISA; assay type: functional, cell-based; conditions: dose 7.5-100 µg/ml
# [8] = test system: Vibrio harveyi; assay: Antibacterial activity against Vibrio harveyi assessed as reduction in microbial growth at 0.024 to 0.113 mg/ml after 270 mins by microdilution assay; assay type: functional, organism-based; conditions: dose 0.024-0.113 mg/ml
# [9] = target: T1, Albumin; assay: Binding affinity to albumin (unknown origin) at 3 mM measured up to 24 hrs by RP-HPLC analysis; assay type: ADME, cell-free; conditions: serum, 3000 µM
# [10] = test system: Serratia marcescens; assay: Antibacterial activity against Serratia marcescens assessed as reduction in microbial growth at 0.024 to 0.113 mg/ml after 270 mins by microdilution assay; assay type: functional, organism-based; conditions: dose 0.024-0.113 mg/ml
# [11] = test system: Pseudoalteromonas shioyasakiensis; assay: Antibacterial activity against Pseudoalteromonas […] assessed as reduction in microbial growth at 0.024 to 0.113 mg/ml after 270 mins by microdilution assay; assay type: functional; conditions: dose 0.024-0.113 mg/ml
# [12] = test system: Pseudomonas aeruginosa; assay: Antibacterial activity against Pseudomonas aeruginosa assessed as reduction in microbial growth at 0.024 to 0.113 mg/ml after 270 mins by microdilution assay; assay type: functional, organism-based; conditions: dose 0.024-0.113 mg/ml
# [13] = test system: Vibrio coralliilyticus; assay: Antibacterial activity against Vibrio coralliilyticus assessed as reduction in microbial growth at 0.024 to 0.113 mg/ml after 270 mins by microdilution assay; assay type: functional; conditions: dose 0.024-0.113 mg/ml
# [14] = test system: Vibrio mediterranei; assay: Antibacterial activity against Vibrio shilonii assessed as reduction in microbial growth at 0.024 to 0.113 mg/ml after 270 mins by microdilution assay; assay type: functional; conditions: dose 0.024-0.113 mg/ml
# [15] = test system: Streptococcus pneumoniae; assay: Antibacterial activity against Streptococcus pneumoniae assessed as reduction in microbial growth at 0.024 to 0.113 mg/ml after 270 mins by microdilution assay; assay type: functional, organism-based; conditions: dose 0.024-0.113 mg/ml
# [16] = Cytotoxicity against human PBMC cells assessed as reduction in cell viability at 5 to 50 ug/ml measured up to 48 hrs by CellTox Green assay; assay type: cell-based; conditions: dose 5-50 µg/ml
# [17] = test system: Streptococcus pyogenes; assay: Antibacterial activity against Streptococcus pyogenes assessed as reduction in microbial growth at 0.024 to 0.113 mg/ml after 270 mins by microdilution assay; assay type: functional, organism-based; conditions: dose 0.024-0.113 mg/ml
# [18] = test system: Escherichia coli; assay: Antibacterial activity against Escherichia coli assessed as reduction in microbial growth at 0.024 to 0.113 mg/ml after 270 mins by microdilution assay; assay type: functional, organism-based; conditions: dose 0.024-0.113 mg/ml
SMILES,"remaining at 24 h, 3000 µM [1] [%]",Activity [2],Activity [3],Activity [4],Activity [5],Activity [6],Activity [7],Activity [8],Activity [9],Activity [10],Activity [11],Activity [12],Activity [13],Activity [14],Activity [15],Activity [16],Activity [17],Activity [18]
CC[C@H](C)[C@H](NC(=O)[C@@H](NC(=O)[C@@H](N)Cc1ccccc1)[C@H](C)O)C(=O)N[C@@H](Cc1ccc(O)cc1)C(=O)N1CCC[C@H]1C(=O)NCC(=O)N[C@H]1CSSC[C@@H](C(=O)O)NC(=O)[C@H](Cc2ccccc2)NC(=O)[C@H](CC(C)C)NC(=O)CNC(=O)[C@H](Cc2c[nH]cn2)NC1=O,85,,,,,,,,,,,,,,,,,
CC[C@H](C)[C@@H]1NC(=O)[C@H](CC(C)C)NC(=O)CNC(=O)[C@H](Cc2ccccc2)NC(=O)[C@@H]2CCCN2C(=O)[C@H]([C@@H](C)O)NC(=O)[C@H](Cc2ccc(O)cc2)NC(=O)[C@H](Cc2c[nH]cn2)NC(=O)[C@@H](NC(=O)CN)CSSC[C@@H](C(=O)N[C@@H](Cc2ccccc2)C(=O)O)NC1=O (H-GCHYTPFGLICF-OH; disulfide 2-11),3,inactive,inactive,inactive,Active,inactive,Active,inactive,Active,inactive,inactive,inactive,inactive,inactive,inactive,Non-Toxic,Active,inactive
